Each compound was assayed against ROCK2 (human) (UniProt O75116) (assay: Inhibition of ROCK2 Kinase Activity).
ROCK2 (human), sequence (O75116 whole entry, looked up): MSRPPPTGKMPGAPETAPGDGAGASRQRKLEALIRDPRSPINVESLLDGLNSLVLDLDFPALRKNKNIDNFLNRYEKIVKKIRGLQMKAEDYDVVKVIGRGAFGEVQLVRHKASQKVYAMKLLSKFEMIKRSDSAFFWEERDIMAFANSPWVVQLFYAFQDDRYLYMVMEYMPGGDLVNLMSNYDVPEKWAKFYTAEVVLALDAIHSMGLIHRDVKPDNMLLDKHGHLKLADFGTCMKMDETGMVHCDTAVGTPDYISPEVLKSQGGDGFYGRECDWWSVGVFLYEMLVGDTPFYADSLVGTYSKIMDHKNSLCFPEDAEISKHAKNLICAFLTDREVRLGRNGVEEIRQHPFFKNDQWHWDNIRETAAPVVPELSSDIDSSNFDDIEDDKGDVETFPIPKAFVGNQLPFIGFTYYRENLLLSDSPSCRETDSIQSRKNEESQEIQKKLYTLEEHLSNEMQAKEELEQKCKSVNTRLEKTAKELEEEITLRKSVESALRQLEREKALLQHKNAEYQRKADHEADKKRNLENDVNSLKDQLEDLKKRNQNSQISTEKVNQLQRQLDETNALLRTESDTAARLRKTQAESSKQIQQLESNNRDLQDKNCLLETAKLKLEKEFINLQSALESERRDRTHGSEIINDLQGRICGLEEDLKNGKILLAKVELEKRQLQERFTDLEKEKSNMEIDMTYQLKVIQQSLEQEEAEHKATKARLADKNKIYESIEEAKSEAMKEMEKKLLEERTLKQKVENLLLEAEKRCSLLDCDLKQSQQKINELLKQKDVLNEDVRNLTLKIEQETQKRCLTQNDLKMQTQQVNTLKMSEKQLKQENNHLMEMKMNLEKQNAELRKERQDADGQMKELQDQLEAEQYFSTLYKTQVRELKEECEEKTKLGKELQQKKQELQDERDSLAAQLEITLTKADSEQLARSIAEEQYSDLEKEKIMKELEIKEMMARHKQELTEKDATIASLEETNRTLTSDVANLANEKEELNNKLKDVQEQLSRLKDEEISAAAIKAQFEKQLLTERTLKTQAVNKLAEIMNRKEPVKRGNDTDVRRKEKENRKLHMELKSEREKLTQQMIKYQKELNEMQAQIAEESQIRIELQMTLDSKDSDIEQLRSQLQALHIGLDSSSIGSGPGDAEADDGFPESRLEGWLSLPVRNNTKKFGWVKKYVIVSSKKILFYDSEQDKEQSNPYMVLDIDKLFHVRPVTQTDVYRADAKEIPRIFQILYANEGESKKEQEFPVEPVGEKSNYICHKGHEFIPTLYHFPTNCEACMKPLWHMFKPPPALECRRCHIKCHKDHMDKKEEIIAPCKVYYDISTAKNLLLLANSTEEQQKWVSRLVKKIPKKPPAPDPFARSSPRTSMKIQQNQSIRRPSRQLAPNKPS

| SMILES | IC50 |
| --- | --- |
| Cn1cccc1C(=O)NCC(N)c1ccc(C(=O)Nc2ccncc2)cc1 (stereo not given) | 500 to 5000 nM |
| CN(CC(N)c1ccc(C(=O)Nc2ccncc2)cc1)C(=O)Cc1csc2ccccc12 (stereo not given) | 500 to 5000 nM |
| CN(CC(N)c1ccc(C(=O)Nc2ccncc2)cc1)C(=O)C1CCOc2ccccc21 (stereo not given) | 500 to 5000 nM |
| COc1ccc(CC(=O)N(C)CC(N)c2ccc(C(=O)Nc3ccncc3)cc2)cc1F (stereo not given) | 500 to 5000 nM |
| CC(C)(C(=O)N1CCCC1C(N)c1ccc(C(=O)Nc2ccncc2)cc1)c1ccc(Cl)cc1 (stereo not given) | 500 to 5000 nM |
| Cc1ccc(C(=O)NCC(N)c2ccc(C(=O)Nc3ccncc3)cc2)cc1 (stereo not given) | 500 to 5000 nM |
| NC(CNC(=O)c1ccc(F)cc1)c1ccc(C(=O)Nc2ccncc2)cc1 (stereo not given) | 500 to 5000 nM |

More lines, now with the values ahead:

| IC50 | SMILES |
| --- | --- |
| 50 to 500 nM | NC(CC(=O)NCc1ccccc1Br)c1ccc(C(=O)Nc2ccncc2)cc1 (stereo not given) |
| 500 to 5000 nM | CN(CC(N)c1ccc(C(=O)Nc2ccncc2)cc1)C(=O)Cc1cccc(Br)c1 (stereo not given) |
| 500 to 5000 nM | NC(c1ccc(C(=O)Nc2ccncc2)cc1)C1CCCN1C(=O)C1(c2ccc(F)cc2)CC1 (stereo not given) |
| 50 to 500 nM | CC(C)(C)c1ccc(CCNC(=O)CC(N)c2ccc(C(=O)Nc3ccncc3)cc2)cc1 (stereo not given) |
| 50 to 500 nM | NC(c1ccc(C(=O)Nc2ccncc2)cc1)C1CCCN1C(=O)Cc1ccccc1F (stereo not given) |
| 50 to 500 nM | NC(CNC(=S)Nc1ccc(Cl)cc1)c1ccc(C(=O)Nc2ccncc2)cc1 (stereo not given) |
| 50 to 500 nM | NC(CC(=O)NCc1cccc2ccccc12)c1ccc(C(=O)Nc2ccncc2)cc1 (stereo not given) |
| 50 to 500 nM | NC(CNC(=O)Cc1cccs1)c1ccc(C(=O)Nc2ccncc2)cc1 (stereo not given) |

Source: the Kinase Knowledgebase extract (Sharma et al. 2016)
